These results are taken from patent US20220378776A1, “DRUG COMBINATION OF QUINOLINE DERIVATIVE AND PD-1 MONOCLONAL ANTIBODY” (CHIA TAI TIANQING PHARMACEUTICAL GROUP CO., LTD, priority 2019, published 2022).

The conditions of data set [1]: phase 2 clinical trial; cited from earlier work.
The subject of the next data set is advanced NSCLC. The note with it: phase 3, Chinese patients; cited from earlier work.
Data set [2] is described as follows: Expected steady state exposure of sintilimab 200 mg Q3W. It is filed as in vivo. As for the experimental part: In some embodiments of the present application, sintilimab is administered at a single dose of 200 mg by intravenous infusion, once every 3 weeks, and every 3 weeks is a treatment cycle.
The selection of the administration mode of sintilimab in this study was mainly based on the data of safety and exposure (concentration)-response (PD-1 receptor occupancy) relationship in the currently completed preliminary studies, combined with the preclinical in vitro/in vivo efficacy and related comparison data of similar drugs.

In the case of `COc1cc2c(Oc3ccc4[nH]c(C)cc4c3F)ccnc2cc1OCC1(N)CC1` [anlotinib, 1-[[[4-(4-fluoro-2-methyl-1H-indol-5-yl)oxy-6-methoxyquinolin-7-yl]oxy]methyl]cyclopropylamine], in data set [1], the overall survival entry is “potential benefit in overall survival” and the progression-free survival result was “improve progression-free survival”. Moreover, in the data set with advanced NSCLC, the overall survival result was “prolonged”, the progression-free survival result is given as “prolonged” and the tolerability result is recorded as “well tolerated”.

As to “sintilimab: anti-PD-1 human IgG4 monoclonal antibody; heavy chain SEQ ID NO: 10, light chain SEQ ID NO: 9; antibody D of CN108473977A”, the “time of continuous administration to reach steady state” value in data set [2] (200 mg Q3W (4 times)) is 84 days. In addition, in data set [2] (200 mg Q3W continuously for 84 days (4 times)), the “mean steady state trough concentration” value is “about 26 μg/mL”.
